Experimental data reported in US8133872B2 (Industrial Cooperation Foundation, Chonbuk National …, priority 2008, dated 2012).
“Also recorded” adds a separate entry of the source.

Assays:
pancreatic β-islet cells = assay: Insulin secretion from isolated mouse pancreatic islets treated with NAADP (radioimmunoassay); assay type: cell-based, mice
Description: The isolation of pancreatic islets from six, 8-week-old ICR mice (Orientbio Inc., Seongnam-si, Korea) weighing 25-30 g was carried out according to the method of Lacy and Kotianovsky (Diabetes, 16, 35-39, 1967) in the following manner. Mice were sacrificed by cervical dislocation, and the peritoneum was incised. Hank's balanced salt solution (HBSS, Gibco, USA) containing 1 mg/mL of collagenase (Sigma, USA) was infused into the bile duct to inflate the pancreas, and then the pancreas was isolated. The isolated pancreas was incubated at 37° C. for 20 minutes, and then homogeneously agitated. The agitated solution was washed with HBSS to remove acinar cells, and then pancreatic islets of a given size were separated from the solution under stereoscopic binocular microscope. […] The concentration of insulin in the supernatant from which the pancreatic β-islet cells have been removed was measured. The measurement of the insulin concentration was carried out by radioimmunoassay using an insulin measurement kit (Diagnostic Products Corp., USA).
Insulin secretion from the mouse pancreatic β-islet cells after treatment by 0 nM and 50 nM at extracellular glucose concentrations maintained at 2.8 mM and 12 mM was measured, and the measurement results are shown in FIG. 1.

[1] = tested on: type-2 diabetic mice (C57BL/KsJ-db/db Jcl); assay: Glucose tolerance test (blood glucose after glucose load) in type-2 diabetic mice given NAADP by osmotic mini-pump; assay type: in vivo
Source text: Seven-week-old type-2 diabetic mice were divided into a control group (five animals) and test groups and tested using an osmotic mini-pump in the following manner. […] Then, the NAADP solution was infused into the abdominal cavity of the mice according to the method described in the supplier's manual.

[2] = tested on: type-2 diabetic mice (C57BL/KsJ-db/db Jcl); assay: Serum insulin after glucose load in type-2 diabetic mice given NAADP (insulin RIA kit); assay type: in vivo
Description: The same test method as described in Example 2 was used, and 50 μl of blood was collected from the tail vein just before glucose load. At 30 minutes (showing the highest blood glucose level after glucose load) and at 120 minutes (showing the lowest blood glucose level after glucose load), the same amount of blood was collected and coagulated, and serum was separated from the blood. The separated serum was measured for insulin concentration using an insulin RIA kit (Linco Research Inc., USA).

[3] = tested on: pancreatic islet cells of type-2 diabetic mice; assay: Immunohistochemical (anti-insulin antibody) and hematoxylin-eosin staining of pancreatic islets; assay type: in vivo; settings: 1 mg/kg/day for 3 weeks, FIG. 4
Description: After 120 minutes, the mice were sacrificed by cervical dislocation, and then immediately the peritoneum was incised. Then, the intestinal and pancreatic tissues were collected and fixed in 4% paraformaldehyde solution (solvent-phosphate buffer; pH 7.4; Sigma, USA) for 12 hours or more. Then, the pancreatic tissue was separated from the intestinal or adipose tissue, and the separated tissue was washed three times or more with a fresh fixture and then processed into paraffin-embedded tissue according to a conventional method.
Tissue sections were cut from the paraffin-embedded tissue at 5-μm intervals using a microtome (Shandon, Germany) and applied to slides coated with poly-L-lysine (Sigma, USA) before use in immunohistochemical staining. In order to remove paraffin from the pancreatic tissue-coated slides, sections were deparaffinized with xylene (Junsei, Japan) for 5 minutes to remove paraffin. Then, the sections were hydrated in 100-70% alcohol series and allowed to stand in phosphate buffer (pH 7.4) for 5 minutes. Then, the sections were treated with 3% hydrogen peroxide to remove intrinsic peroxidase, and then allowed to react with anti-insulin antibody (Dako, USA) at 4° C. for 12 hours. Then, the section samples were subjected to immunohistochemical staining with anti-insulin antibody using an immunohistochemical staining kit (A.B.I., Jeonju-si, Korea). […]

[4] = 1 mg/kg/day NAADP by osmotic mini-pump, fasting from 13 hours before testing
[5] = 1 mg/kg/day NAADP by osmotic mini-pump, sera at 0, 30 and 120 min

With “nicotinic acid adenine dinucleotide phosphate [NAADP]” the “insulin secretion from pancreatic β-islet cells” value (pancreatic β-islet cells; 50 nM NAADP, glucose 12 mM, 37° C., FIG. 1) was “great increase in insulin secretion”, the “NAADP concentration essential for stimulating insulin secretion from pancreatic β-islet cells” value (pancreatic β-islet cells; in the presence of glucose) was 5 to 500 nM and the “time at which blood glucose returned to the fasting blood glucose level after glucose load” value [1, 4] was 120 min. For the same substance, the “time of blood glucose peak after glucose load” value [1, 4] was 30 min, the blood glucose levels ([1]; 1 mg/kg/day intraperitoneally by osmotic mini-pump, 3 weeks, type-2 diabetic mice, FIG. 2) was “clear decrease in blood glucose levels; also recorded: clear effect of lowering the blood glucose levels” and the “blood insulin level after the peak, up to 120 minutes after glucose load” value [2, 5] was “maintained at a constant level”. For the same substance, the “time of blood insulin peak after glucose load” value [2, 5] was 30 min, the blood insulin concentration ([2]; 1 mg/kg/day, at 3 weeks (10-week-old), after glucose load, FIG. 3) was “clear increase in blood insulin concentration” and the “hematoxylin-eosin staining: capsules covering the pancreatic islets and β-islet cells” value [3] was “clustered together”. The “positive response of pancreatic β-islet cells to anti-insulin antibody” value ([3]; compared to control group) was “clearly increased”.
